Experimental data: US6846931B2, “Organic acid salt of amlodipine” (CJ Corp, priority 2002, dated 2005)

Key:
[1] = Test for hygroscopicity (water content at different humidity levels); type: physicochemical; conditions: for water content: 25° C.; for change of water content: one week under various humidity conditions
[2] = Chemical stability in solid state, accelerated test at 60° C. (HPLC content); type: physicochemical; conditions: for changes in the content: accelerated test at 60° C.; for content (HPLC): solid state, 60° C.
From the text: 1. HPLC Analysis Conditions:
Detector: UV Absorbance (at 237 nm)
Column: Octadesyl silica gel C18 (4.6 mm×150mm, 5 μm)
Mobile Phase: Potassium dihydrogenphosphate monobasic (0.03M): methanol=4:6 (v/v)

[3] = Chemical stability in aqueous state, 25° C., 4 weeks, complete darkness (HPLC); type: physicochemical; conditions: distilled water
Description: The resulting aqueous solutions were stored at 25° C. for 4 weeks in complete darkness, after which a measurement was made of the contents of the salts with resort to HPLC under the same conditions as in the solid state.

[4] = Test for light stability, aqueous solution exposed to daylight (HPLC content); type: physicochemical; conditions: for color change: 4 weeks at 25° C., daylight; for content (HPLC): stored for 4 weeks at 25° C. daylight
Description: The resulting aqueous solutions were stored at 25° C. for 4 weeks while being exposed to daylight. A measurement was made of the contents of the salts with resort to HPLC under the same conditions as in the chemical stability test.

[5] = physchem; conditions: 37 °C, pH 5, aqueous buffer

Compound	water content ([1]; 25% RH, 1 week)	water content ([1]; 60% RH, 1 week)	water content ([1]; 75% RH, 1 week)	water content ([1]; 90% RH, 1 week)	water content ([1]; Initial)	change of water content [1]	changes in the content [2]	content (HPLC) ([2]; 1 week)	content (HPLC) ([2]; initial)	decomposition products and content change [3]	color change [4]	content (HPLC) [4]	content (HPLC) ([2]; 2 weeks)	solubility [5]
CCOC(=O)C1=C(COCCN)NC(C)=C(C(=O)OC)[C@@H]1c1ccccc1Cl [(S)-(−)-PyroGlu, Amlodipine (S)-(−)-Pyroglutamate]	0.26%	0.3%	0.31%	0.32%	0.3%	kept its initial water content without great fluctuation	virtually no changes in the content	99.6%	99.6%	neither decomposition products nor content change is found	no color change	98.5%	–	–
CCOC(=O)C1=C(COCCN)NC(C)=C(C(=O)OC)C1c1ccccc1Cl (stereo not drawn) [Besylate, Amlodipine Besylate]	0.10%	0.09%	0.15%	0.17%	0.14%	kept its initial water content without great fluctuation	virtually no changes in the content	99.6%	99.6%	neither decomposition products nor content change is found	turned yellow from white	82.5%	99.4%	3150 µg/mL
CCOC(=O)C1=C(COCCN)NC(C)=C(C(=O)OC)C1c1ccccc1Cl.Cc1ccc(S(=O)(=O)O)cc1 (stereo not drawn) [Tosylate, Amlodipine para-Toluenesulfonate]	–	–	–	–	–	–	–	–	–	–	–	72.0%	–	–
